Measured values published in patent US20130040882A1, “USE OF FIBROBLAST GROWTH FACTOR FRAGMENTS” (NOVARTIS AG, priority 2003, published 2013).

Test system: uterine gene expression
Test: Gene expression profiling (HGU133A) in the uterus of ovariectomized monkeys treated with estradiol, tamoxifen or raloxifene
Assay type: in vivo, cynomolgus monkeys (Macaca fascicularis)

CC/C(=C(\c1ccccc1)c1ccc(OCCN(C)C)cc1)c1ccccc1 [tamoxifen]
Uterine expression increase: Collagen type 1 alpha 2 (compared with OVX controls): 6.1 fold | Uterine expression increase: collagen type 1 alpha1 (compared with OVX controls): 3.5 fold | Uterine expression increase: collagen type III alpha 1 (compared with OVX controls): 3.4 fold | Uterine expression increase: collagen type IV alpha 1 (compared with OVX controls): 3.2 fold | Uterine expression increase: insulin-like GF binding protein 2 (36 kDa) (compared with OVX controls): 2.7 fold | Uterine expression changes: IGFBP 5, latent TGF beta binding protein 1, cysteine-rich angiogenic inducer 61 (cynomolgus monkey, in vivo): only modest changes | Uterine expression of the remaining signal transduction genes examined (tamoxifen: except for LDL receptor adaptor protein): downregulated | Fold change relative to OVX: ATPase, H+ transporting, lysosomal 38 kda, V0 subunit d isoform 1 (uterus, OVX monkeys): 1.2 fold | Fold change relative to OVX: ATPase, Na+/K+ transporting, beta 3 polypeptide (uterus, OVX monkeys): 2.1 fold | Fold change relative to OVX: Biglycan (uterus, OVX monkeys): 2.0 fold | Fold change relative to OVX: CDC28 protein kinase regulatory subunit 2 (uterus, OVX monkeys): 3.1 fold | Fold change relative to OVX: Cadherin 11, type 2, OB-cadherin (osteoblast) (uterus, OVX monkeys): 3.2 fold | Fold change relative to OVX: Calcium channel, voltage-dependent, beta 2 subunit (uterus, OVX monkeys): 0.5 fold | Fold change relative to OVX: Catenin (cadherin-associated protein), alpha-like 1 (uterus, OVX monkeys): 0.7 fold | Fold change relative to OVX: Chitinase 3-like 1 (cartilage glycoprotein-39) (uterus, OVX monkeys): 1.7 fold | Fold change relative to OVX: Chloride intracellular channel 4 (uterus, OVX monkeys): 1.9 fold | Fold change relative to OVX: Chondroitin sulfate proteoglycan 2 (versican) (uterus, OVX monkeys): 2.9 fold | Fold change relative to OVX: Collagen, type I, alpha 1 (uterus, OVX monkeys): 3.5 fold | Fold change relative to OVX: Collagen, type IV, alpha 2 (uterus, OVX monkeys): 2.2 fold | Fold change relative to OVX: Collagen, type V, alpha 1 (uterus, OVX monkeys): 1.3 fold | Fold change relative to OVX: Collagen, type VI, alpha 3 (uterus, OVX monkeys): 2.0 fold | Fold change relative to OVX: Collagen, type VIII, alpha 2 (uterus, OVX monkeys): 1.8 fold | Fold change relative to OVX: Cyclin D1 (PRAD1: parathyroid adenomatosis 1) (uterus, OVX monkeys): 1.8 fold | Fold change relative to OVX: Cysteine-rich, angiogenic inducer, 61 (uterus, OVX monkeys): 1.6 fold | Fold change relative to OVX: Cytochrome c oxidase subunit via polypeptide 1 (uterus, OVX monkeys): 1.3 fold | Fold change relative to OVX: Cytochrome c oxidase subunit viia polypeptide 2 (liver) (uterus, OVX monkeys): 1.6 fold | Fold change relative to OVX: Dermatopontin (uterus, OVX monkeys): 1.8 fold | Fold change relative to OVX: Dishevelled associated activator of morphogenesis 1 (uterus, OVX monkeys): 1.2 fold | Fold change relative to OVX: Fibroblast growth factor 2 (basic) (uterus, OVX monkeys): 2.0 fold | Fold change relative to OVX: Fibulin 1 (uterus, OVX monkeys): 1.9 fold | Fold change relative to OVX: Four and a half LIM domains 2 (uterus, OVX monkeys): 1.7 fold | Fold change relative to OVX: G1 to S phase transition 1 (uterus, OVX monkeys): 1.6 fold | Fold change relative to OVX: Growth associated protein 43 (uterus, OVX monkeys): 1.9 fold | Fold change relative to OVX: H2A histone family, member Y (uterus, OVX monkeys): 1.7 fold | Fold change relative to OVX: Heparan sulfate proteoglycan 2 (perlecan) (uterus, OVX monkeys): 2.2 fold | Fold change relative to OVX: Histone H2A.F/Z variant (uterus, OVX monkeys): 1.5 fold | Fold change relative to OVX: Insulin-like growth factor binding protein 2, 36 kda (uterus, OVX monkeys): 2.7 fold | Fold change relative to OVX: Insulin-like growth factor binding protein 5 (uterus, OVX monkeys): 2.0 fold | Fold change relative to OVX: Integrin, beta 5 (uterus, OVX monkeys): 1.5 fold | Fold change relative to OVX: Intercrine-alpha, mrna sequence (uterus, OVX monkeys): 1.5 fold | Fold change relative to OVX: LDL receptor adaptor protein (uterus, OVX monkeys): 1.2 fold | Fold change relative to OVX: LIM and senescent cell antigen-like domains 1 (uterus, OVX monkeys): 2.9 fold | Fold change relative to OVX: Laminin, beta 1 (uterus, OVX monkeys): 1.4 fold | Fold change relative to OVX: Latent transforming growth factor beta binding protein 1 (uterus, OVX monkeys): 2.6 fold | Fold change relative to OVX: Matrix metalloproteinase 19 (uterus, OVX monkeys): 1.6 fold | Fold change relative to OVX: Mitogen-activated protein kinase kinase kinase kinase 4 (uterus, OVX monkeys): 0.6 fold | Fold change relative to OVX: Nidogen (enactin) (uterus, OVX monkeys): 1.9 fold | Fold change relative to OVX: Osteoglycin (osteoinductive factor, mimecan) (uterus, OVX monkeys): 1.7 fold | Fold change relative to OVX: Peroxiredoxin 1 (uterus, OVX monkeys): 1.7 fold | Fold change relative to OVX: Phosphatase and tensin homolog (mutated in multiple advanced cancers 1) (uterus, OVX monkeys): 1.6 fold | Fold change relative to OVX: Phospholipid transfer protein (uterus, OVX monkeys): 1.4 fold | Fold change relative to OVX: Pituitary tumour-transforming 1 interacting protein (uterus, OVX monkeys): 1.9 fold | Fold change relative to OVX: Procollagen C-endopeptidase enhancer (uterus, OVX monkeys): 2.3 fold | Fold change relative to OVX: Procollagen-proline, 2-oxoglutarate 4-dioxygenase (proline 4-hydroxylase), alpha polypeptide II (uterus, OVX monkeys): 1.6 fold | Fold change relative to OVX: Progesterone receptor (uterus, OVX monkeys): 4.5 fold | Fold change relative to OVX: Protein tyrosine kinase 9 (uterus, OVX monkeys): 1.7 fold | Fold change relative to OVX: SET domain, bifurcated 1 (uterus, OVX monkeys): 1.9 fold | Fold change relative to OVX: SPARC-like 1 (mast9, hevin) (uterus, OVX monkeys): 1.3 fold | Fold change relative to OVX: Secreted frizzled-related protein 1 (uterus, OVX monkeys): 2.2 fold | Fold change relative to OVX: Secreted frizzled-related protein 4 (uterus, OVX monkeys): 2.9 fold | Fold change relative to OVX: Secreted protein, acidic, cysteine-rich (osteonectin) (uterus, OVX monkeys): 2.2 fold | Fold change relative to OVX: Serine (or cysteine) proteinase inhibitor, clade H (heat shock protein 47), member 1, (collagen binding protein 1) (uterus, OVX monkeys): 2.2 fold | Fold change relative to OVX: Solute carrier family 22 (organic cation transporter), member 1-like (uterus, OVX monkeys): 1.8 fold | Fold change relative to OVX: Solute carrier family 25 (mitochondrial carrier; adenine nucleotide translocator), member 5 (uterus, OVX monkeys): 2.2 fold | Fold change relative to OVX: Stem cell growth factor; lymphocyte secreted C-type lectin (uterus, OVX monkeys): 1.4 fold | Fold change relative to OVX: Tenascin C (hexabrachion) (uterus, OVX monkeys): 3.8 fold | Fold change relative to OVX: Testis Enhanced Gene Transcript (Bax Inhibitor 1) (uterus, OVX monkeys): 1.5 fold | Fold change relative to OVX: Thioredoxin interacting protein (uterus, OVX monkeys): 0.6 fold | Fold change relative to OVX: Transforming growth factor, beta-induced, 68 kda (uterus, OVX monkeys): 2.2 fold | Fold change relative to OVX: Ubiquinol-cytochrome c reductase, Rieske iron-sulfur polypeptide 1 (uterus, OVX monkeys): 1.4 fold | Fold change relative to OVX: Wingless-type MMTV integration site family, member 2B (uterus, OVX monkeys): 1.9 fold | Fold change relative to OVX: Wingless-type MMTV integration site family, member 16 (uterus, OVX monkeys): 1.1 fold | Fold change relative to SHAM control: ATPase, H+ transporting, lysosomal 38 kda, V0 subunit d isoform 1 (uterus, OVX monkeys): 1.0 fold | Fold change relative to SHAM control: ATPase, Na+/K+ transporting, beta 3 polypeptide (uterus, OVX monkeys): 1.2 fold | Fold change relative to SHAM control: Biglycan (uterus, OVX monkeys): 0.7 fold | Fold change relative to SHAM control: CDC28 protein kinase regulatory subunit 2 (uterus, OVX monkeys): 1.9 fold | Fold change relative to SHAM control: Cadherin 11, type 2, OB-cadherin (osteoblast) (uterus, OVX monkeys): 1.9 fold | Fold change relative to SHAM control: Calcium channel, voltage-dependent, beta 2 subunit (uterus, OVX monkeys): 0.9 fold | Fold change relative to SHAM control: Catenin (cadherin-associated protein), alpha-like 1 (uterus, OVX monkeys): 1.5 fold | Fold change relative to SHAM control: Chitinase 3-like 1 (cartilage glycoprotein-39) (uterus, OVX monkeys): 1.2 fold | Fold change relative to SHAM control: Chloride intracellular channel 4 (uterus, OVX monkeys): 1.1 fold | Fold change relative to SHAM control: Chondroitin sulfate proteoglycan 2 (versican) (uterus, OVX monkeys): 2.1 fold | Fold change relative to SHAM control: Collagen, type I, alpha 1 (uterus, OVX monkeys): 1.3 fold | Fold change relative to SHAM control: Collagen, type IV, alpha 2 (uterus, OVX monkeys): 1.3 fold | Fold change relative to SHAM control: Collagen, type V, alpha 1 (uterus, OVX monkeys): 0.6 fold | Fold change relative to SHAM control: Collagen, type VI, alpha 3 (uterus, OVX monkeys): 1.1 fold | Fold change relative to SHAM control: Collagen, type VIII, alpha 2 (uterus, OVX monkeys): 1.1 fold | Fold change relative to SHAM control: Cyclin D1 (PRAD1: parathyroid adenomatosis 1) (uterus, OVX monkeys): 2.0 fold | Fold change relative to SHAM control: Cysteine-rich, angiogenic inducer, 61 (uterus, OVX monkeys): 0.9 fold | Fold change relative to SHAM control: Cytochrome c oxidase subunit via polypeptide 1 (uterus, OVX monkeys): 1.2 fold | Fold change relative to SHAM control: Cytochrome c oxidase subunit viia polypeptide 2 (liver) (uterus, OVX monkeys): 1.7 fold | Fold change relative to SHAM control: Dermatopontin (uterus, OVX monkeys): 1.0 fold | Fold change relative to SHAM control: Dishevelled associated activator of morphogenesis 1 (uterus, OVX monkeys): 0.8 fold | Fold change relative to SHAM control: Fibroblast growth factor 2 (basic) (uterus, OVX monkeys): 1.0 fold | Fold change relative to SHAM control: Fibulin 1 (uterus, OVX monkeys): 1.1 fold | Fold change relative to SHAM control: Four and a half LIM domains 2 (uterus, OVX monkeys): 1.1 fold | Fold change relative to SHAM control: G1 to S phase transition 1 (uterus, OVX monkeys): 1.3 fold
